Measured values as given in ChEMBL document CHEMBL1201862, “PubChem BioAssay data set” (2004).
Calls of active or inactive are those of the source.

Experiments:
CAAX prenyl protease 2 [1] = biological target: T1, CAAX prenyl protease 2 (Saccharomyces cerevisiae S288c, UniProt Q03530); test: inhibition of Rce1p peptide cleavage – biochemical, plate reader, dry powder retest, dose response (AID 588851)
T1 sequence (Q03530 whole entry): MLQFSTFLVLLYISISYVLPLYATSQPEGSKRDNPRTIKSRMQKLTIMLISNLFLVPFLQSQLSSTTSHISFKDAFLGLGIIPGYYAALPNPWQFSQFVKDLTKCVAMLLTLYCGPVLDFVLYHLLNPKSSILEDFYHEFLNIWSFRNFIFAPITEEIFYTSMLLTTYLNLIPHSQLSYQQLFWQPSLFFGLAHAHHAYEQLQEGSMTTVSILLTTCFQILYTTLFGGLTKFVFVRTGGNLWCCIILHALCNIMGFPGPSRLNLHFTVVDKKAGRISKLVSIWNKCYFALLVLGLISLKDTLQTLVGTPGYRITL

CAAX prenyl protease 2 [2] = biological target: T1, CAAX prenyl protease 2; format: biochemical
[3] = blockers of HIV-1 ZM109 envelope-driven cell-cell fusion – HeLa effector, CEM target cells, luciferase, cherry-pick, dose response (AID 652058); format: functional, cell-based;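 also: luciferase signal from HIV-1 Env mediated cell-cell fusion of effector and target cells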
[4] = Luminescence-based counterscreen assay for KLF5 inhibitors: dose response cell-based high throughput screening assay to identify cytotoxic compounds using the IEC-6 intestinal epithelial cell line. [Related pubchem assays: 1700 (Primary screen.), 1834 (Confirmation screen.), 1858 (Summary AID.), 1905 (Counterscreen.)]; format: functional
Jurkat = test: SAR Analysis of small molecule inhibitors of T-cell specific antigen receptor-induced NF-kB activation in a Jurkat cell line using a luminescence assay - Set 2. [Related pubchem assays (depositor defined):AID435003, AID435012, AID465]; format: functional, cell-based; settings: Homo sapiens
HEK293 [5] = test: EBV LMP1 TES2 canonical NF-kB signalling blockers – cell-based, HEK293, luciferase, cherry-pick, dose response (AID 588343); format: functional; settings: Homo sapiens
HEK293 [6] = test: SAR Analysis of small molecule inhibitors of T-cell specific antigen receptor-induced NF-kB activation in a HEK-293T cell line using a luminescence assay - Set 2. [Related pubchem assays (depositor defined):AID435003, AID435012, AID489026]; format: functional, cell-based; settings: Homo sapiens
[7] = HIV-1 AD8 envelope cell-cell fusion blockers – cherry-pick, dose response (AID 652062); format: functional, cell-based;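 also: luciferase signal from cell-cell fusion driven by HIV-1 clade B AD8 Env; potency is for inhibitors of fusion seen as a drop in luminescence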
cells = format: functional, cell-based
[8] = HEK-293T cell viability reduction – luminescence, B-cell screen hits, cytotoxicity control for BCR NF-kB inhibitor project, dose response (AID 489021); format: functional, cell-based;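 also: HEK-293T cells carrying an NF-kB luciferase reporter; cells exposed to compound for about 14 hours before viability readout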
HT-1080 = test: HT1080 cell viability loss – fluorescence readout (AID 620); format: functional, cell-based; settings: Homo sapiens
[9] = luciferase reporter signal suppression in cells – H4 neuroglioma cells, luminescence, dose response (AID 1990); format: functional, cell-based
[10] = alpha-synuclein stem-loop translation blockers – luminescence, H4 neuroglioblastoma cells, dose confirmation, confirmation (AID 2454); format: functional, cell-based;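 also: H4 neuroglioblastoma cells carrying an alpha-synuclein 5'UTR luciferase reporter; potency for inhibition of the luciferase signal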
HEK293 [11] = test: Cytotoxicity assay in HEK293 cells. [Related pubchem assays (depositor defined):AID1266, AID1269, AID1270, AID1271, AID1280, AID1281, AID1282, AID1283, AID1287, AID1289, AID1290, AID1291, AID1292, AID1293, AID1294, AID1295, AID1299, AID1302, AID1364, AID1365, AID1366, AID1367, AID1369, AID1370, AID1371, AID1372, AID1373, AID1374, AID1375, AID1384 …; format: functional, cell-based; settings: Homo sapiens
[12] = luciferase reporter signal reduction – luminescence, H4-C neuroglioblastoma cells, dose response (AID 2458); format: functional, cell-based;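 also: H4 neuroglioblastoma cells stably carrying a luciferase reporter gene fusion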
HEK293 [13] = test: HEK293T cell viability loss, resazurin readout – resazurin fluorescence, cytotoxicity control for NF-kB activator project, SAR follow-up (AID 493251); format: functional, cell-based; settings: Homo sapiens
[14] = biological target: T2, Luciferin 4-monooxygenase (Photinus pyralis, UniProt P08659); test: Counter Screen for Luciferase-based Assay Positives. [Related pubchem assays: 620, 618, 411 ]
[15] = off-target signal loss in HeLa-CEM21 co-culture – HeLa F-luc CTL cells, cherry-picked, counter-screen for HIV-1 Env fusion inhibitor project, dose response (AID 652040); format: functional, cell-based;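 also: potency for signal decrease marking cytotoxic or nonspecific inhibition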
[16] = blockers of HIV-1 envelope-mediated cell-cell fusion – cherry-pick, dose response (AID 652057); format: functional, cell-based
HEK293 [17] = test: TNF Induced NF-kB Luciferase in 293-NF-kB-Luc Stable Cells. [Related pubchem assays: 1266, 1299, 1269, 1373, 1292, 1290, 1302, 1371, 1283, 1270, 1295, 1271, 1375, 1294, 1374, 1281, 1293, 1291, 1289, 1280, 465, 1368, 1364, 1282, 1372, 1365, 1369, 1370, 1367, 1366 ]; format: functional, cell-based; settings: Homo sapiens
[18] = alpha-synuclein stem-loop luciferase translation blockers – H4 neuroglioma cells, luminescence, confirmation (AID 1988); format: functional, cell-based
HEK293 [19] = test: PMA/Ionomycin induced NF-kB luciferase assay in 293- NF-kB-Luc stable cells. [Related pubchem assays: 1299, 1270, 1295, 1375, 1287, 1281, 1293, 1291, 1289, 1280, 465, 1364, 1282, 1372, 1365, 1370, 1367, 1366, 1269, 1373, 1292, 1290, 1302, 1371, 1283, 1271, 1294, 1374, 1368, 1369 ]; format: functional, cell-based; settings: Homo sapiens
[20] = biological target: T2, Luciferin 4-monooxygenase; test: In vitro luciferase assay using purified luciferase. [Related pubchem assays: 1299, 1270, 1295, 1375, 1287, 1281, 1293, 1291, 1289, 1280, 465, 1364, 1282, 1372, 1365, 1370, 1367, 1366, 1266, 1373, 1292, 1290, 1302, 1371, 1283, 1271, 1294, 1374, 1368, 1369 ]
HSP90 = HSP90 (Plasmodium falciparum 3D7, UniProt Q8IL32); format: functional, organism-based
Chain of HSP90 (Q8IL32 whole entry): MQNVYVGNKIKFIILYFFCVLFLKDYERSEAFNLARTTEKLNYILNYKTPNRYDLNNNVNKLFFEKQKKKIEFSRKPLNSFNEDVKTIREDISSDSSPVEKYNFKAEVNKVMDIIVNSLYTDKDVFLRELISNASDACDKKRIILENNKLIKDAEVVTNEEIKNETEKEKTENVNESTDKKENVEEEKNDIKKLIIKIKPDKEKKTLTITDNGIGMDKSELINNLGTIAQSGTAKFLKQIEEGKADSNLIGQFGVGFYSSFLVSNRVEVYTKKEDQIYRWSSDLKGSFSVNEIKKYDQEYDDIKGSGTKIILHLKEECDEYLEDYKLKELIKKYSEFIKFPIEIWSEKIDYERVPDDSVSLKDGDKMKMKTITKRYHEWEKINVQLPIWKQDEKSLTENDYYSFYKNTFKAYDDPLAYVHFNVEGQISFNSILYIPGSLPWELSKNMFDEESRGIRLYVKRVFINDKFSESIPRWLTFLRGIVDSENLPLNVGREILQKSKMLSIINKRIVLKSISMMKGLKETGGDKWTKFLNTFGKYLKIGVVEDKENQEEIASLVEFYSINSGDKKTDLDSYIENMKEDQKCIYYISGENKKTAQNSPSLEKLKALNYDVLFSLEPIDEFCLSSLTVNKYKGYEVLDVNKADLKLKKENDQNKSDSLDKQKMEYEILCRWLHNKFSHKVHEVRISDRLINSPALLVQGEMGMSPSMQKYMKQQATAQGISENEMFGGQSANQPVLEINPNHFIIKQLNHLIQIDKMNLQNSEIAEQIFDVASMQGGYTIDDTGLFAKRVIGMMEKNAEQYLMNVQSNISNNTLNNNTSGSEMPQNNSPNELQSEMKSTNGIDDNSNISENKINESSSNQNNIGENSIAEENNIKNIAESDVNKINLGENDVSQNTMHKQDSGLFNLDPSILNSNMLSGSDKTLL

T2 sequence (P08659 whole entry, the tested form may be a part): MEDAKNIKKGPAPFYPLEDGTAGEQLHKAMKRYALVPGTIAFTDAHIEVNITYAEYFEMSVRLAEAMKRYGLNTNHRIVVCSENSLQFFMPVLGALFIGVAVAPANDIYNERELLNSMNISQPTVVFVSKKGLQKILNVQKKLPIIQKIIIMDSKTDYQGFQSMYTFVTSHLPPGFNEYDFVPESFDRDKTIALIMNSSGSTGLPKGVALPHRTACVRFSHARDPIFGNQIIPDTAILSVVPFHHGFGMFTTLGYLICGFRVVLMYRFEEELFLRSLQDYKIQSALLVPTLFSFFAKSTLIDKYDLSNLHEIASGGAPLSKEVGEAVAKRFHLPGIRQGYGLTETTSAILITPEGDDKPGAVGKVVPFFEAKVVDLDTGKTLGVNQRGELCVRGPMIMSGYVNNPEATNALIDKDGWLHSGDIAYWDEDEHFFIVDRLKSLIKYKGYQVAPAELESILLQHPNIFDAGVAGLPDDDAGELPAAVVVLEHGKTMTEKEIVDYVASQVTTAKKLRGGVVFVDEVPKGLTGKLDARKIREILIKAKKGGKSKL

Cc1cccc(-c2nnc(SCc3ccc(C#N)cc3)n2Cc2ccco2)c1
AC50 (CAAX prenyl protease 2 [1]): 16800 nM (active) | AC50 (CAAX prenyl protease 2 [2]): 963 nM (active)

CC(C)(C)c1ccc(-c2noc(CCC(N)=O)n2)cc1
AC50 [3]: < 260 nM (active) | IC50 [4]: > 39800 nM (not active) | IC50 (Jurkat): 260 nM (active) | AC50 (HEK293 [5]): 401 nM (active) | IC50 (HEK293 [6]): 480 nM (active) | AC50 [7]: < 260 nM (active) | EC50 (cells): 517 nM (active) | IC50 [8]: > 80000 nM (inactive) | EC50 (HT-1080): > 50000 nM (not active) | EC50 [9]: < 100 nM (active) | EC50 [10]: 203 nM (active) | EC50 (HEK293 [11]): 14900 nM (inactive) | EC50 [12]: 470 nM (active) | IC50 (HEK293 [13]): > 80000 nM (inactive) | EC50 [14]: 16500 nM (active) | AC50 [15]: < 260 nM (active) | AC50 [16]: 344 nM (active) | EC50 (HEK293 [17]): 528 nM (active) | EC50 [18]: < 100 nM (active) | EC50 (HEK293 [19]): 443 nM (active) | EC50 [20]: > 8000 nM (not active)

CCCC1CCC(c2ccc(C(=N)NO)cc2)CC1 (centres undefined)
AC50 (HSP90): 28600 nM (active)
